Experimental data reported in the METLIN SMRT retention time set (Domingo-Almenara et al. 2019).

Assay: gradient 5% acetonitrile 3 min, to 50% in 2 min, to 85% in 15 min, held 3 min, 100 µL/min
Conditions: column: Zorbax Extend-C18 2.1 x 50 mm; eluents: water / acetonitrile, 0.1% formic acid
Outline: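 Retention time was recorded from adduct peaks, which were picked computationally and each inspected manually. Pure standards ran in mixtures of ~100 molecules on HPLC coupled to a quadrupole time-of-flight mass spectrometer, in positive and negative ionization mode, through a Zorbax Extend-C18 column (2.1 × 50 mm, 1.8 μm) at 100 μL/min. Eluents were water and acetonitrile, each with 0.1% formic acid.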

First: COc1cc(NC(=O)NCCc2cn(C)c3ncccc23)cc(OC)c1
Second: COCC(=O)Nc1ccc2c(c1)Sc1ncccc1C(=O)N2C(C)C
The RP-LC retention time of the first is higher: 657 s for the first, 645 s for the second.

First: COc1cc(C(=O)N2CCC3(CC2)NC(=O)c2cc(C)ccc2N3C)cc(OC)c1OC
Second: COc1ccc2c(c1)C1(CCN(C(=O)c3cccc(Cl)c3)C1)C(=O)N2 (stereo not drawn)
The RP-LC retention time of the first is lower: 730 s for the first, 753 s for the second.

First: COCCN1C(=O)[C@H]2CN(Cc3cccnc3)C[C@H]2C1=O
Second: COc1cccc(Cn2cccc(S(=O)(=O)N3CCCCCC3)c2=O)c1
The RP-LC retention time of the first is lower: 528 s for the first, 935 s for the second.

Compared with `CN(C)S(=O)(=O)c1ccc(C(=O)Nc2nc3c(s2)CCc2ccccc2-3)cc1`, `CC1(C)CS(=O)(=O)N(c2ccc(C(=O)NCCc3c[nH]c4ccccc34)cc2)C1=O` is lower in RP-LC retention time: 1110 s for the first, 825 s for the second.

First: O=C(NCCc1ccco1)C1CCCN(c2ccc(=O)n(-c3ccc(F)cc3)n2)C1 (stereo not drawn)
Second: COC(=O)c1cc(C)nc2c1c(=O)n(Cc1ccc(C)cc1)c(=O)n2Cc1ccco1
The RP-LC retention time of the first is lower: 773 s for the first, 1160 s for the second.

First: COc1ccccc1C(=O)N1CCN(S(=O)(=O)c2cc3c4c(c2)CCC(=O)N4CCC3)CC1
Second: CC(=O)N1CCc2cc(N3CC(C(=O)N4CCN(c5ccccn5)CC4)CC3=O)ccc21 (stereo not drawn)
The RP-LC retention time of the first is higher: 771 s for the first, 566 s for the second.

Going from `Cc1c(O)ccc2c1oc(=O)c1ccccc12` to `Cc1ccnc(Nc2nc(C)c3ccccc3n2)n1`, the RP-LC retention time falls from 808 s to 580 s.

Compared with `O=C(c1cc2cc(Cl)ccc2[nH]1)N1CCOCC1`, `O=C(c1cc2occc2c(Nc2ccc(Cl)cc2)n1)N1CCN(C(=O)c2ccco2)CC1` is higher in RP-LC retention time: 860 s for the first, 861 s for the second.

First: COc1cccc(NC(=O)N2CCC(c3cc(N)on3)CC2)c1
Second: Cc1ccc2ncn(C3CCN(C(=O)Nc4ccccc4)CC3)c(=O)c2c1
The RP-LC retention time of the first is lower: 653 s for the first, 751 s for the second.

Compared with `Cc1ccccc1-c1nc(C)c(C(=O)NC(C)C)s1`, `Cc1nc(-c2cc(S(=O)(=O)NC(C)Cc3ccco3)c(C)s2)sc1C` (stereo not drawn) is higher in RP-LC retention time: 903 s for the first, 1060 s for the second.

Compared with `COc1ccc(-c2nc(-c3cn(-c4ccc(C)cc4)nn3)no2)cc1OC`, `Cc1ccc(-c2cn3c(CC(=O)Nc4ccc(F)cc4F)csc3n2)cc1C` is lower in RP-LC retention time: 1050 s for the first, 861 s for the second.

Compared with `O=C(NC1CCCCC1)C1CCN(Cc2noc(-c3ccc(F)cc3)n2)CC1`, `O=C(C1=NNc2ccccc2S1(=O)=O)N1CCCCCC1` is higher in RP-LC retention time: 665 s for the first, 735 s for the second.

First: CC(C)=CCN1CCC2(CCc3ccccc32)CC1
Second: Cc1ccc(CNC(=O)C2(C)CCN(C(=O)Nc3ccc4c(c3)OCCO4)CC2)cc1
The RP-LC retention time of the first is higher: 775 s for the first, 751 s for the second.

Compared with `N#Cc1ccccc1CN1C[C@@H](CO)[C@H](c2nc(C3CC3)no2)C1`, `COCCn1c(SCc2nc(-c3ccccc3)no2)nc2cc3c(cc2c1=O)OCO3` is higher in RP-LC retention time: 607 s for the first, 1040 s for the second.

First: O=C1c2ccccc2C(=O)C1c1ccccn1
Second: Cc1c(Cl)cccc1-n1ccnc(NC(=O)Nc2ccc(F)cc2)c1=O
The RP-LC retention time of the first is lower: 749 s for the first, 1000 s for the second.

First: CCc1ccc(OCC(=O)Nc2ccc(S(N)(=O)=O)cc2)c(Br)c1
Second: CCCc1ccc(S(=O)(=O)Nc2ccc3nc(S(=O)(=O)CCC)sc3c2)cc1
The RP-LC retention time of the first is lower: 836 s for the first, 1080 s for the second.

Compared with `CCCN1CCN(CCCNC(=O)C(C)n2c3ccccc3c3cnn(C)c(=O)c32)CC1` (stereo not drawn), `Cc1cnn(Cc2c(C(=O)N3CCc4nn(C)c(=O)n4CC3)noc2C)c1` is higher in RP-LC retention time: 571 s for the first, 602 s for the second.

First: CCSc1nc2ccc(NS(=O)(=O)c3ccc4c(c3)OCCO4)cc2s1
Second: COc1cccc(S(=O)(=O)N2CCc3c(c(CN(C(C)=O)c4ccccc4)nn3C)C2)c1
The RP-LC retention time of the first is higher: 987 s for the first, 793 s for the second.

Going from `CC(NCC(O)COCCOc1ccc(F)cc1)c1ccccc1` (stereo not drawn) to `CC(=O)OCCn1c([N+](=O)[O-])cnc1/C=[N+](\[O-])C1CCCCC1`, the RP-LC retention time rises from 595 s to 753 s.
